A short description of one data set: in vivo. To be noted: female, CB17 SCID, mouse, po, 10 mg/kg.
A further data set addresses TRKC (Homo sapiens, UniProt Q16288). The conditions noted are these: 1 μM; Run 1, Run 2.
For another data set, the target named is T1, DDR1 (Homo sapiens, UniProt Q08345).
T1 construct: purchased Reaction Biology Corporation
The data set is described as follows: 375-member kinase panel. It counts as biochemical. To be noted: Run 1, Run 2.

A further data set deals with BLK (Homo sapiens, UniProt P51451). To be noted: 1 μM; Run 1, Run 2.
The next data set addresses PEAK1 (Homo sapiens, UniProt Q9H792). The data set is described as follows: biochemical. To be noted: read-out: % enzyme activity, 1 μM; Run 1, Run 2.
Another data set deals with c-MET (Homo sapiens, UniProt P08581). Kind of data set: biochemical. The conditions noted are these: read-out: % enzyme activity, 1 μM; Run 1, Run 2.
Another data set deals with PASK (Homo sapiens, UniProt Q96RG2). The conditions noted are these: 1 μM; Run 1, Run 2.
A further data set concerns the target T2, ALK2/ACVR1 (Homo sapiens, UniProt Q04771).
T2 construct: purchased Reaction Biology Corporation
T2 sequence (Q04771 21-509): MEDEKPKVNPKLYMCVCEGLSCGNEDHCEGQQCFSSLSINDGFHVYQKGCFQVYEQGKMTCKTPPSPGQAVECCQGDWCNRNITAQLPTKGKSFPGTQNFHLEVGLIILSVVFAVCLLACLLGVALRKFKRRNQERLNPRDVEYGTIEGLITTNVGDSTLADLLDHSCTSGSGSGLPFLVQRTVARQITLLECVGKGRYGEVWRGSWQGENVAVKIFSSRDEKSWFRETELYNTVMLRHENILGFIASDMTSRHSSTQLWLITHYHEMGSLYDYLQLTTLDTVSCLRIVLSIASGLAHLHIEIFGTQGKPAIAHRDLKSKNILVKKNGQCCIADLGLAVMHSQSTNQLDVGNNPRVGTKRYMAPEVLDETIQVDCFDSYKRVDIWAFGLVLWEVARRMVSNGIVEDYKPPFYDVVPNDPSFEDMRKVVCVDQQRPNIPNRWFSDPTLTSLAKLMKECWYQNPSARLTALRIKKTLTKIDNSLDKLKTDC
It counts as biochemical. To be noted: biochemical ALK5 IC50 / ALK2 IC50.

In the next data set the target is FGFR2 (Homo sapiens, UniProt P21802). The conditions noted are these: 1 μM; Run 1, Run 2.
The conditions of data set [1]: 10 mg/kg PO, relative to 8b.
A further data set addresses T3, AXL (Homo sapiens, UniProt P30530).
T3 sequence (P30530 26-894): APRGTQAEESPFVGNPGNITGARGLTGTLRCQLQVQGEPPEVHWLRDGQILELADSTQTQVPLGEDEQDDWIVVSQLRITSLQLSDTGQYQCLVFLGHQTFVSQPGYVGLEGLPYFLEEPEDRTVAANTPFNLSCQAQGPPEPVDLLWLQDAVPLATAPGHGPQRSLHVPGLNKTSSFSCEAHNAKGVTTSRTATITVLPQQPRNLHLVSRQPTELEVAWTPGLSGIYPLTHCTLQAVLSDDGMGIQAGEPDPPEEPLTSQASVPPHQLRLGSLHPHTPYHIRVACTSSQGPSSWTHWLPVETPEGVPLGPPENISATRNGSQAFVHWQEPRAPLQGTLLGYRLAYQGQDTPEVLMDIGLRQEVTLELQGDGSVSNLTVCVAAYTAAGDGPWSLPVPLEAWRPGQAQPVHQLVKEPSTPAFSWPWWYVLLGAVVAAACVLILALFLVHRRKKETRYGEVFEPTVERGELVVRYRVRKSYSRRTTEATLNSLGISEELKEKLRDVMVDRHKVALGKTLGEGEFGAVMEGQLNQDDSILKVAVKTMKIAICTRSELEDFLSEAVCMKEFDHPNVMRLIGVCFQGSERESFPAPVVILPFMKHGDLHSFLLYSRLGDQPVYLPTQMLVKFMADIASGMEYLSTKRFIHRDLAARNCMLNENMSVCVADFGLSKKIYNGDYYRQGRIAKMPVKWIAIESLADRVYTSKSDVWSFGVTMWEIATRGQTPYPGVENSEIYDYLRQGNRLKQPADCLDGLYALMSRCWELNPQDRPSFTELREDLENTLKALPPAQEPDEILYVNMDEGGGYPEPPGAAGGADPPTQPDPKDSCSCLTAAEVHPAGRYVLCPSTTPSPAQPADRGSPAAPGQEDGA
The data set is described as follows: biochemical. The conditions noted are these: read-out: % enzyme activity, 1 μM; Run 1, Run 2.

The nature of the next data set: in vitro. To be noted: human, Caco-2, pH 7.4.
For the next data set, the target named is T4, SGK1 (Homo sapiens, UniProt O00141).
T4 sequence (O00141 1-431): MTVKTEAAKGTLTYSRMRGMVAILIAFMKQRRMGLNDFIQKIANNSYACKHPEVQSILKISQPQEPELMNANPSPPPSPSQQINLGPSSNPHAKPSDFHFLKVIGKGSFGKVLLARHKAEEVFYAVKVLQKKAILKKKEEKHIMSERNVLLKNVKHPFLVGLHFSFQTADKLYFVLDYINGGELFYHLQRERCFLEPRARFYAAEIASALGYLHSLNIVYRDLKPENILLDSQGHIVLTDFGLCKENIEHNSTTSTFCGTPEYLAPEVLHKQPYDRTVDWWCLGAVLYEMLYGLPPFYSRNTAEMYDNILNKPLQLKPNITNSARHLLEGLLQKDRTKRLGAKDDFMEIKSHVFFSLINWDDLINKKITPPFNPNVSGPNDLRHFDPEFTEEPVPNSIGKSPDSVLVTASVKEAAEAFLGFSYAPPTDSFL
The conditions noted are these: 1 μM; Run 1, Run 2.

The target of the next data set is CYP2B6 (Homo sapiens, UniProt P20813). The conditions noted are these: read-out: CYP2B6 IC50; human liver microsomes. (In general: Liver microsomes are vesicles of endoplasmic reticulum, rich in cytochrome P450 enzymes.)
Another data set concerns the target MNK2 (Homo sapiens, UniProt Q9HBH9). The conditions noted are these: 1 μM; Run 1, Run 2.

Molecules are shown by their SMILES. Some results are limits rather than exact numbers.

c-MET, sequence (P08581 25-1390): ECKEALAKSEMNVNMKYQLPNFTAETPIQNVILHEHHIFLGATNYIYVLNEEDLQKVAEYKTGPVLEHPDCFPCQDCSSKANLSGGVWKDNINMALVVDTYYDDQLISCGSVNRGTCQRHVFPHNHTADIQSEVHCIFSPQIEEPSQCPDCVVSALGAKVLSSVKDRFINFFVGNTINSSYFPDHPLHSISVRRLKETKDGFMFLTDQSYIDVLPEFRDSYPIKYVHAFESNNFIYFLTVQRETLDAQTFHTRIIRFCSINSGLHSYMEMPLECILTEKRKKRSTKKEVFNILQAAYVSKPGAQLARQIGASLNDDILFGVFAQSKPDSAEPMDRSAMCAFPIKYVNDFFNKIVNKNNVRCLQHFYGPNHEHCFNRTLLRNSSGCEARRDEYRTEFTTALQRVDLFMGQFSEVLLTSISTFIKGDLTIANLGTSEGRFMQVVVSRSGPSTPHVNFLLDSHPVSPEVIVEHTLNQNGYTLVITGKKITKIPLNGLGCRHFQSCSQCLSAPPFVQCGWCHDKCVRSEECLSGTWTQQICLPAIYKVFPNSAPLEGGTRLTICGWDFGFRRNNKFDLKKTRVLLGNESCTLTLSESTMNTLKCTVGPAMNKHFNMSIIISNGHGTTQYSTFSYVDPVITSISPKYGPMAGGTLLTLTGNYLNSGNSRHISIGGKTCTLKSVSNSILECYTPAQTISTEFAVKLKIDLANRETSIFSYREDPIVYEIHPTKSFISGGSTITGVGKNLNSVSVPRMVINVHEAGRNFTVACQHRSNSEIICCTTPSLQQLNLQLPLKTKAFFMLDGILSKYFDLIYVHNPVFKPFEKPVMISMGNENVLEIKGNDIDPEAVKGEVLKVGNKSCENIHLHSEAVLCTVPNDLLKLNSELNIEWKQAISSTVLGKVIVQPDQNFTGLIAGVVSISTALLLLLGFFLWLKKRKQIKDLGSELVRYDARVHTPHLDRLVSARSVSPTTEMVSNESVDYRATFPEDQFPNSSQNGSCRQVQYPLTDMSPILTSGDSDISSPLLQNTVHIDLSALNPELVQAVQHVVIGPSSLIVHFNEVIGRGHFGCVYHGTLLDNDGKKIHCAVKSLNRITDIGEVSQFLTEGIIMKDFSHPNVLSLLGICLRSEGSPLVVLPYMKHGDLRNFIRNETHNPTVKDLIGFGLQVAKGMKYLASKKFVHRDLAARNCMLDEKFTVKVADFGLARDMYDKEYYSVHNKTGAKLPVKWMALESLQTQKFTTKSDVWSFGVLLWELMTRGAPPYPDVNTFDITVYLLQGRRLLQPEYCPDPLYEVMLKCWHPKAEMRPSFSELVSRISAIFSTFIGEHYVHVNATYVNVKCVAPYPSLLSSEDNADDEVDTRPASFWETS
PEAK1, sequence (Q9H792 whole entry): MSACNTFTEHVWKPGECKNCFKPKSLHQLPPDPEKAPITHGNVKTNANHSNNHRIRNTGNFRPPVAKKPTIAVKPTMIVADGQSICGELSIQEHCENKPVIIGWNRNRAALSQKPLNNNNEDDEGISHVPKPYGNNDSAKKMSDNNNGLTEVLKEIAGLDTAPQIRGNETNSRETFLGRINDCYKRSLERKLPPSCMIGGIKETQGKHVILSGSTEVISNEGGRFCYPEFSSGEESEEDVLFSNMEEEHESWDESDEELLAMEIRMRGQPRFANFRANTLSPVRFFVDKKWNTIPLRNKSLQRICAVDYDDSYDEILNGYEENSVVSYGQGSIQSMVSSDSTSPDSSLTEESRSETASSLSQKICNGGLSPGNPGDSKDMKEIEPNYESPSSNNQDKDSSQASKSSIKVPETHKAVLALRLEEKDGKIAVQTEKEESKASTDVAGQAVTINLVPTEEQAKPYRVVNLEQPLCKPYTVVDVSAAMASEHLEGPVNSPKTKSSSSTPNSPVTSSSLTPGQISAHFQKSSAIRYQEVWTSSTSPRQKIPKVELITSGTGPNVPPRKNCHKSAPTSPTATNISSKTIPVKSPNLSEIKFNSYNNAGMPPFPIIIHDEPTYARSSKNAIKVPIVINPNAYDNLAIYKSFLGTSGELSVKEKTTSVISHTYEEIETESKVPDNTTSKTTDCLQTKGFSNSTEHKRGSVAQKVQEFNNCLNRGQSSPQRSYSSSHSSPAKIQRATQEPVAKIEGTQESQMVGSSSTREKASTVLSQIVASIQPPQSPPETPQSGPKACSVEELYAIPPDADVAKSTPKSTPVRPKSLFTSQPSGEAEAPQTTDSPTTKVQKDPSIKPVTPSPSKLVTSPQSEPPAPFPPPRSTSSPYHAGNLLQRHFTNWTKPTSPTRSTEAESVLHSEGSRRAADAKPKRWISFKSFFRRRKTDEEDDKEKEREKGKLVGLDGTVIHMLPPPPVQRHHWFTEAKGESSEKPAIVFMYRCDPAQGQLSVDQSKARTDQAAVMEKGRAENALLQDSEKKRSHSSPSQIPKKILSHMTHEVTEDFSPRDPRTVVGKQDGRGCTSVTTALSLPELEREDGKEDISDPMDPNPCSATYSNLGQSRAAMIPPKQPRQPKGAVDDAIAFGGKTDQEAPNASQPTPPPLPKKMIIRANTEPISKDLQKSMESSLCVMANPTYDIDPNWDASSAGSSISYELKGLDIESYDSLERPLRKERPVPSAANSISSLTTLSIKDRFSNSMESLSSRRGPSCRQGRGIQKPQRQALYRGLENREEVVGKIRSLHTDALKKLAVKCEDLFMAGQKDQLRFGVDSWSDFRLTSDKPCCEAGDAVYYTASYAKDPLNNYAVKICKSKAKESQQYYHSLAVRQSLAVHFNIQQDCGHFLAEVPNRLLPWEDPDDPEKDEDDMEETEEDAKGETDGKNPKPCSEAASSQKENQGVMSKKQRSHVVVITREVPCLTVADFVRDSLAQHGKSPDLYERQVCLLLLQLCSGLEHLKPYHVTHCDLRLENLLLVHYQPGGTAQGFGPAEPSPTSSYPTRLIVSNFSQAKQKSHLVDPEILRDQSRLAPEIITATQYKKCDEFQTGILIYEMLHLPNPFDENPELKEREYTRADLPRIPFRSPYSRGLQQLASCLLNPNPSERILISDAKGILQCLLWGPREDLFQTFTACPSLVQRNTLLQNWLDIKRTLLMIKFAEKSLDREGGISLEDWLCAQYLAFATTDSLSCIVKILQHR
FGFR2, sequence (P21802 22-821): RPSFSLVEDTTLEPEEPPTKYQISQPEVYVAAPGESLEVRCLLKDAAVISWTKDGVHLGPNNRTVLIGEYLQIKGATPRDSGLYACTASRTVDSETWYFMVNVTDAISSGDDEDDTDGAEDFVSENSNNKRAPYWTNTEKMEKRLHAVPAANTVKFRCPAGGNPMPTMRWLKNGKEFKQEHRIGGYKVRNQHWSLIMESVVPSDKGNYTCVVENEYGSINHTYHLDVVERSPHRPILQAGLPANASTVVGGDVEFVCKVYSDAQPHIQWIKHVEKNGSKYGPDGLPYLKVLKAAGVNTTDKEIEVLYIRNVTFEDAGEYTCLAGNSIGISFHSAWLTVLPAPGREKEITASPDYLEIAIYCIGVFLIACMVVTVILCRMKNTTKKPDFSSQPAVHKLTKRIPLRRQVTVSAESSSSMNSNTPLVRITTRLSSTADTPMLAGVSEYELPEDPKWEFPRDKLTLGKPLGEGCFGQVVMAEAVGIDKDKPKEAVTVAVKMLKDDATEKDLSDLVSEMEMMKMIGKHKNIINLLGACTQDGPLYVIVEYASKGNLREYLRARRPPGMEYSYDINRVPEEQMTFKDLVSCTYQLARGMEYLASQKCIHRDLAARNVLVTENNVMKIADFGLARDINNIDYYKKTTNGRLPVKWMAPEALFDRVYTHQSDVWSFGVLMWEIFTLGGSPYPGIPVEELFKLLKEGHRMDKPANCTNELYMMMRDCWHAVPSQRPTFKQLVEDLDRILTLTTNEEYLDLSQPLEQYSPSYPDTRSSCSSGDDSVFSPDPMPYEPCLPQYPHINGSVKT
TRKC, sequence (Q16288 32-839): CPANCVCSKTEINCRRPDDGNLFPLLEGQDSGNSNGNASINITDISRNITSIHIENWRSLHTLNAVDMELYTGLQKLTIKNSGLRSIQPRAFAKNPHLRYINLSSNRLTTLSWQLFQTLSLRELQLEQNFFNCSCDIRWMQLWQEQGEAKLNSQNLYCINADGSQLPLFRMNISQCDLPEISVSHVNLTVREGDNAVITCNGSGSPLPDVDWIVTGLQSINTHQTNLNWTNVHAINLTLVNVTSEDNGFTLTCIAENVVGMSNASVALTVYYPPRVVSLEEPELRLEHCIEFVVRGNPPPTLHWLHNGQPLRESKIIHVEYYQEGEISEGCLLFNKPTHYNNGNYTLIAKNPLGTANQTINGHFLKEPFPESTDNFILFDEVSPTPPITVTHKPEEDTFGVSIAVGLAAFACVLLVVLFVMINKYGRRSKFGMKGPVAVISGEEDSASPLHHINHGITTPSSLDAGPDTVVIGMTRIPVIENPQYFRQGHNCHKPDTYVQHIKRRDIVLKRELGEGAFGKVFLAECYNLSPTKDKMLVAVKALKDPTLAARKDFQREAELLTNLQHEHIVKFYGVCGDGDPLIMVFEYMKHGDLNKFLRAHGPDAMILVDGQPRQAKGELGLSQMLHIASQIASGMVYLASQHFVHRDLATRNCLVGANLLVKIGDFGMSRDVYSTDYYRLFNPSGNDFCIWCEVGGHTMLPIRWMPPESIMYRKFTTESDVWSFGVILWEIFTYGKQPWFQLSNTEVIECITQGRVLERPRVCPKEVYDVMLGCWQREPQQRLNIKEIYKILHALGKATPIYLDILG

With `COc1cc(-c2cncc(-c3ccc(N4CCN(C)CC4)cc3)c2C)cc(F)c1C(N)=O` [Compound 26a, 2-Fluoro-6-methoxy-4-(4-methyl-5-(4-(4-methylpiperazin-1-yl)phenyl)pyridin-3-yl)benzamide], in “in vivo”, the half-life at 24 h is 2.56 h. Also, the “% enzyme activity” value at TRKC amounted to 101.44%; on DDR1 (1 μM) it was 31.23%; at BLK it was 95.94%; at PASK, 93.23%; on FGFR2 it was 95.46%; at SGK1 it was 93.48%. The remaining activity at 1 µM at DDR1 (read-out: % enzyme activity, 1 μM) worked out at 32.1%; on PEAK1 it was 99.1%; at c-MET it was 100%; on AXL, 81.8%. Further, the “Fold Selectivity (ALK5/ALK2)” value on ALK2/ACVR1 is on record as 350. In addition, the “fold increase in AUCinf” value in data set [1] is recorded as above 13 fold. In data set [1], the “fold increase in Cmax” value is listed as “greater than 17 fold”. The efflux ratio in “in vitro” is below 3.
Turning to `COc1cc(-c2cncc(-c3ccc(N4C[C@@H](C)N(C)[C@@H](C)C4)cc3)c2C)cc(F)c1C(N)=O` [Compound 26c, 2-Fluoro-6-methoxy-4-(4-methyl-5-(4-((3R,5S)-3,4,5-trimethylpiperazin-1-yl)phenyl)pyridin-3-yl)benzamide], the “% enzyme activity” value at TRKC amounted to 97.50%; on PASK, 98.21%; on FGFR2, 90.89%; on MNK2 it was 68.28%; on SGK1, 95.22%. The concentration for half-maximal inhibition (IC50) was above 5000 nM in the data set with DLA ALK5, above 50000 nM at CYP2B6 and 100 nM in the data set on NanoBRET ALK2. Besides, the remaining activity at 1 µM on PEAK1 was 96.6%; at c-MET it was 107%; on AXL, 91.3%.

In general, half-life refers to the time in which the quantity being followed falls by half. Read a high half-life as slow loss. A word on the efflux ratio: it is the permeability from basolateral to apical divided by that in the opposite direction, in the common usage. Broadly, the IC50 is the midpoint of a concentration-inhibition curve.

The values are drawn from publication PMC8213057, “Targeting ALK2: An Open Science Approach to Developing Therapeutics for the Treatment of Diffuse Intrinsic Pontine Glioma” (Journal of Medicinal Chemistry, 2020).
